Here are results for 2 substances from patent publication US8828931B2, “Bifunctional molecules for inhibiting HIV entry” (priority 2008, dated 2014).

Like-named read-outs stand apart in the source and are kept apart here. No end group written: not given here.

Series [1] concerns HIV-1 IIIB-mediated cell fusion (H9/HIV-1 IIIB effector cells, MT-2 target cells). The note with it: H9/HIV-1 IIIB and MT-2 cells, dye transfer. The procedure:
HIV-1-mediated cell-cell fusion was determined by a dye transfer assay (Lu H et al. J Virol Methods 107:155-161, 2003) using Calcein AM-labeled HIV-1IIIB chronically infected H9 (H9/HIV-1 IIIB) cells as effector cells and MT-2 cells as target cells.

The subject of a further series is HIV-1 IIIB (B, X4). The procedure:
The inhibitory activity of the bifunctional molecule on HIV-1 IIIB infection was determined by ELISA for p24 production (Jiang S et al. J Exp Med 174:1557-1563, 1991). Briefly, MT-2 cells were infected with HIV-1IIIB at 100 TCID50 (50% tissue culture infective dose) in RPMI 1640 medium containing 10% FBS in the presence or absence of an antigen specific antiserum or IgG antibody in serial 2-fold dilutions at 37° C. overnight. The culture supernatants were then removed and fresh media were added. On day 4 post-infection, the culture supernatants were collected and mixed with equal volumes of 5% Triton X-100 for the detection in the p24 protein ELISA.

A further series relates to NL4-3V38A/N42G. As for the experimental part:
Briefly, 2×10^5 or 5×10^5 CEMx174 5.25M7 cells were infected with HIV-1 or HIV-2, respectively, at 100 TCID50 (50% tissue culture infective dose) in RPMI 1640 medium containing 10% FBS in the absence or presence of an antisera or purified IgG antibodies at graded concentrations overnight. On the fourth day post-infection, cells were harvested and lysed using a lysis buffer (Promega, Madison, Wis.). The luciferase activity was measured by Ultra 384 luminometer reader (Tecan) and the percent inhibition was calculated.

For another series, the system named is 92US657 (B, R5). In kind it is cell-based, HIV-1. As for the experimental part: (§1) Briefly, the peripheral blood mononuclear cells (PBMCs) were isolated from the blood of healthy donors using a standard density gradient (Histopaque-1077, Sigma) centrifugation. After incubation at 37° C. for 2 hr, the nonadherent cells were collected and resuspended at 5×10^5/ml in RPMI 1640 medium containing 10% FBS, 5 μg of phytohemagglutinin (PHA)/ml, and 100 U of IL-2/ml, followed by incubation at 37° C. for 3 days. The PHA-stimulated cells were infected with the corresponding primary HIV-1 isolates at a multiplicity of infection (MOI) of 0.01 in the absence or presence of antisera at a serial 2-fold dilution. The supernatants were collected 7 days post-infection and tested for p24 antigen by ELISA as described above. The IC50 was calculated using the CalcuSyn
(§2) software as described above.

The next series has as its system 93IN101 (B, R5). In kind it is cell-based, HIV-1. As for the experimental part:
as §1, §2

A short description of series [2]: In vitro stability in human serum, residual activity by cell-cell fusion inhibition assay. To be noted: 16 μM, 37° C., 100% human serum. The source says:
(§3) Samples were collected at different intervals and tested for the residual concentrations of the active component using cell-cell fusion inhibition assay as described above.

Series [3] can be described thus: In vitro stability in PBMC culture, residual activity by cell-cell fusion inhibition assay. To be noted: 16 μM, 37° C.
From the text: as §3

The target of a further series is proteinase K (Parengyodontium album, UniProt P06873). The series is described as follows: Resistance to proteolysis by proteinase K. The note with it: 4 μM in PBS, immobilized proteinase K 0.1 unit/ml, 37° C.
Sequence of proteinase K (P06873 106-384): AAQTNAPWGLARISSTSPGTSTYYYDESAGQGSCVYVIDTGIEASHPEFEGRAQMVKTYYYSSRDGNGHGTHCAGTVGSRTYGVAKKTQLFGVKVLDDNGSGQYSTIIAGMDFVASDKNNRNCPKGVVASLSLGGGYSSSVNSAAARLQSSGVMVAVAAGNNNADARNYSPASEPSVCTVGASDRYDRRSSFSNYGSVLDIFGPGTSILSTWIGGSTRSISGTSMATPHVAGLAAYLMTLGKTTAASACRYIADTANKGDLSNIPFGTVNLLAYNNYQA

Turning to enfuvirtide, the IC50 in series [1] (read-out: IC50, concentration for inhibiting HIV-1 IIIB-mediated cell fusion) is 15.9 nM; with HIV-1 IIIB (B, X4) (IIIB (B, X4)), 68.1 nM; with NL4-3V38A/N42G (read-out: IC50, HIV-1 replication, NL4-3V38A/N42G, T20-resistant HIV-1 strain, luciferase), over 2000 nM; in the series on 92US657 (B, R5), 1.7 nM; in the series with 93IN101 (B, R5) it was 2.7 nM. Besides, the IC90 in series [1] (read-out: IC90, concentration for inhibiting HIV-1 IIIB-mediated cell fusion) is 25.4 nM; in the series with HIV-1 IIIB (B, X4) (IIIB (B, X4)) it was 211 nM; in the series with NL4-3V38A/N42G (read-out: IC90, HIV-1 replication, NL4-3V38A/N42G, T20-resistant HIV-1 strain, luciferase), over 2000 nM; with 92US657 (B, R5), 13 nM; with 93IN101 (B, R5), 6.5 nM. In the series with NL4-3V38A/N42G (concentration up to 2,000 nM), the “inhibition of infection by T20-resistant strain” value was “no inhibition”. The “residual activity in human serum after 6 days” value in series [2] is reported as 5%. Also, the “time after which activity began to be lost in PBMC” value in series [3] (PBMC in RPMI1640 with 10% FBS) was over 2 days. Also, the “activity lost in PBMC after 6 days incubation” value in series [3] (PBMC, 6 days) was over 90%. At proteinase K, the “treatment time with proteinase K after which activity was totally lost” value is 5 min.

For “TTWMAWDREINNYTSLIHSLIRRSQNQQEKNEQELLELDKWASLLWNWF [T1144-C10]”, in the series with HIV-1 IIIB (B, X4) (read-out: IC50, HIV-1 replication, IIIB (B, X4), MT-2 cells, p24), the IC50 is over 250 nM. Besides, the IC90 in the series with HIV-1 IIIB (B, X4) (read-out: IC90, HIV-1 replication, IIIB (B, X4), MT-2 cells, p24) is over 250 nM.
